According to patent publication US20260347353A1, “INDOLIZINE DERIVATIVES FOR TREATING CANCER” (Antares Therapeutics, Inc., priority 2022, published 2026):

Key:
[1] = biological target: T1, p53 Y220C mutant protein (amino acid residues 94-293) (Homo sapiens, UniProt P04637, Y220C); experiment: Surface Plasmon Resonance (SPR) assay, p53 Y220C Kd_kinetic; details: multi-cycle kinetics, 16 or 20 °C, pH 7.5, 1:1 binding model
T1 construct: p53 Y220C mutant protein (amino acid residues 94-293)
How it was run: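 Kd from multi-cycle SPR kinetics fitted to a 1:1 model, using 2-fold, 7-point compound series over p53 Y220C (residues 94-293). Flow 30 μL/min, 60 s association, 120 s dissociation, at 16 or 20 °C in 50 mM Tris pH 7.5, 100 mM NaCl, 1 mM DTT, 0.01% Brij35, 0.05% Tween-20, 1% DMSO.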

NUGC3 cells (p53 Y220C) = experiment: Cell Proliferation Assay (CellTiter-Glo), NUGC3 p53 Y220C; format: cell-based; details: Homo sapiens, NUGC-3, 120 h, 5 days, read-out: CTG NUGC3 P53 Y220C IC50
How it was run: (§1)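 Seeded at 250–500 cells/well, then compound-treated for 5 days; the NCIH1299 lines carry Tet-One inducible p53 Y220C or R273H transduced lentivirally. Viability by CellTiter-Glo luminescence after 10 min at room temperature; IC50 calculated.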

[2] = test system: NCIH1299-inducible p53 Y220C cells; experiment: Cell Proliferation Assay (CellTiter-Glo), NCIH1299-inducible p53 Y220C; format: cell-based; details: Homo sapiens, NCI-H1299, 120 h, 5 days, read-out: CTG H1299 P53 Y220C IC50
How it was run: as §1

p53 Y220C = p53 Y220C (Homo sapiens, UniProt P04637, Y220C); experiment: Luciferase Reporter Assay, p53 Y220C (NCIH1299 cells with inducible p53 Y220C and p53 response element-luciferase); format: cell-based; details: 6 hour compound treatment, read-out: Luc P53 Y220C AC50
How it was run: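 NCI-H1299 cells stably carrying a p53 response element-luciferase reporter and Tet-inducible p53 Y220C were induced with 0.5 ug/mL doxycycline for 24 h, then treated with compound for 6 h. Luminescence was read after One-Glo addition. AC50 was derived relative to 10 uM tool compound as positive control.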

T1 sequence (P04637 94-293, stated change not applied): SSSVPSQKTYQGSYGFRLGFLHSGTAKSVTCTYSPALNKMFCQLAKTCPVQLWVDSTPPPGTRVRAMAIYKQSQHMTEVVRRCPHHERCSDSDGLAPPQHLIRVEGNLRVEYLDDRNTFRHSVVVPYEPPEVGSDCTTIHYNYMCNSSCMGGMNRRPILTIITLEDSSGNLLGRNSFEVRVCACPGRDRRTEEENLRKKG

| SMILES | Kd [1] [µM] | AC50 (p53 Y220C) [µM] | IC50 (NUGC3 cells (p53 Y220C)) [µM] | IC50 [2] [µM] |
| --- | --- | --- | --- | --- |
| CN1CC[C@@H](Nc2cccn3c(SC(F)(F)F)c(-c4nsc(CNC(=O)C5CC5)n4)cc23)[C@@H](F)C1 [Example 4, N-{[3-(8-{[(3S,4R)-3-fluoro-1-methylpiperidin-4-yl]amino}-3-[(trifluoromethyl)sulfanyl]indolizin-2-yl)-1,2,4-thiadiazol-5-yl]methyl}cyclopropanecarboxamide] | 0.01 to 0.1 | ≥ 3 | ≥ 3 | ≥ 3 |
| COc1ccc2nc(C(=O)NCc3nc(-c4cc5c(N[C@@H]6CCN(C)C[C@@H]6F)cccn5c4SC(F)(F)F)no3)ccc2c1 [Example 34, N-{[3-(8-{[(3S,4R)-3-fluoro-1-methylpiperidin-4-yl]amino}-3-[(trifluoromethyl)sulfanyl]indolizin-2-yl)-1,2,4-oxadiazol-5-yl]methyl}-6-methoxyquinoline-2-carboxamide] | 0.01 to 0.1 | ≥ 3 | 1.5 to 3 | 1.5 to 3 |
| Cc1ccsc1C(=O)NCc1nc(-c2cc3c(N[C@@H]4CCN(C)C[C@@H]4F)cccn3c2SC(F)(F)F)no1 [Example 30, N-{[3-(8-{[(3S,4R)-3-fluoro-1-methylpiperidin-4-yl]amino}-3-[(trifluoromethyl)sulfanyl]indolizin-2-yl)-1,2,4-oxadiazol-5-yl]methyl}-3-methylthiophene-2-carboxamide] | 0.01 to 0.1 | 0.75 to 1.5 | 1.5 to 3 | 1.5 to 3 |
| CN1CC[C@@H](Nc2cccn3c(SC(F)(F)F)c(-c4noc(CNC(=O)c5cnc(C(C)(C)C)o5)n4)cc23)[C@@H](F)C1 [Example 13, 2-tert-butyl-N-{[3-(8-{[(3S,4R)-3-fluoro-1-methylpiperidin-4-yl]amino}-3-[(trifluoromethyl)sulfanyl]indolizin-2-yl)-1,2,4-oxadiazol-5-yl]methyl}-1,3-oxazole-5-carboxamide] | < 0.01 | < 0.75 | < 0.75 | < 0.75 |
| CN1CC[C@@H](Nc2cccn3c(SC(F)(F)F)c(-c4noc(CNC(=O)C5CC(O)C5)n4)cc23)[C@@H](F)C1 (stereo partly drawn) [Example 8, (1r,3r)-N-{[3-(8-{[(3S,4R)-3-fluoro-1-methylpiperidin-4-yl]amino}-3-[(trifluoromethyl)sulfanyl]indolizin-2-yl)-1,2,4-oxadiazol-5-yl]methyl}-3-hydroxycyclobutane-1-carboxamide] | < 0.01 | 1.5 to 3 | 1.5 to 3 | 0.75 to 1.5 |

The next lines start with results.

| Kd [1] [µM] | AC50 (p53 Y220C) [µM] | SMILES | IC50 (NUGC3 cells (p53 Y220C)) [µM] | IC50 [2] [µM] |
| --- | --- | --- | --- | --- |
| < 0.01 | < 0.75 | CNC(=O)c1ccc(C(=O)NCc2nc(-c3cc4c(N[C@@H]5CCN(C)C[C@@H]5F)cccn4c3SC(F)(F)F)no2)cc1 [Example 57, N1—{[3-(8-{[(3S,4R)-3-fluoro-1-methylpiperidin-4-yl]amino}-3-[(trifluoromethyl)sulfanyl]indolizin-2-yl)-1,2,4-oxadiazol-5-yl]methyl}-N4-methylbenzene-1,4-dicarboxamide] | < 0.75 | < 0.75 |
| 0.01 to 0.1 | ≥ 3 | C[C@H](O)CC(=O)NCc1nc(-c2cc3c(N[C@@H]4CCN(C)C[C@@H]4F)cccn3c2SC(F)(F)F)no1 [Example 64, (3S)—N-{[3-(8-{[(3S,4R)-3-fluoro-1-methylpiperidin-4-yl]amino}-3-[(trifluoromethyl)sulfanyl]indolizin-2-yl)-1,2,4-oxadiazol-5-yl]methyl}-3-hydroxybutanamide] | ≥ 3 | ≥ 3 |
| < 0.01 | < 0.75 | CN1CC[C@@H](Nc2cccn3c(SC(F)(F)F)c(-c4noc(CNC(=O)c5ccc(S(C)(=O)=O)cc5)n4)cc23)[C@@H](F)C1 [Example 42, N-{[3-(8-{[(3S,4R)-3-fluoro-1-methylpiperidin-4-yl]amino}-3-[(trifluoromethyl)sulfanyl]indolizin-2-yl)-1,2,4-oxadiazol-5-yl]methyl}-4-methanesulfonylbenzamide] | < 0.75 | < 0.75 |
